Experimental data as given in ChEMBL document CHEMBL1150980, “Potent inhibitors of neutral endopeptidase. 2-Biphenyl- methylglutaric acid amide derivatives” (Bioorg Med Chem Lett, 1996).

target: T1, Neprilysin (Rattus norvegicus, UniProt P07861); assay: In vitro inhibition of neutral endopeptidase from rat kidney.
T1 sequence (P07861 whole entry): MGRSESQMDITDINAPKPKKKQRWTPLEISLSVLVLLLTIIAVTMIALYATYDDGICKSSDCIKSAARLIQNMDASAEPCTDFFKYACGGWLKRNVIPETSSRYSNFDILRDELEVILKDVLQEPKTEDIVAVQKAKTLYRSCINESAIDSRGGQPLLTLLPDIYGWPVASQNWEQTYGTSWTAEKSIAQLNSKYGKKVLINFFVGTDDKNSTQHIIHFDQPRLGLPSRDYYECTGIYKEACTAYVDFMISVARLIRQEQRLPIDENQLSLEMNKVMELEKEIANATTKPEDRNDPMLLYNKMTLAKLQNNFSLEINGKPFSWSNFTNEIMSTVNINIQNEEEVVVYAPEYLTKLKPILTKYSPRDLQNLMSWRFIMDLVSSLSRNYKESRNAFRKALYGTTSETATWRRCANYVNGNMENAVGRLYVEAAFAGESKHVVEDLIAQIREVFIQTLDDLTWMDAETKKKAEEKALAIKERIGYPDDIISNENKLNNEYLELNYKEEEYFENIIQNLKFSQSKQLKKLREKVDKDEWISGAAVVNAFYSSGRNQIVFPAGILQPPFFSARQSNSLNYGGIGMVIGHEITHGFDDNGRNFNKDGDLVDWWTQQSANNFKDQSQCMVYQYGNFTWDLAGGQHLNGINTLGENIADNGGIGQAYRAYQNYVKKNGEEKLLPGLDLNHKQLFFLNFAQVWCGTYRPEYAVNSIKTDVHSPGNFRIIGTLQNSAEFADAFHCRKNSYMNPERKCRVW

| Structure (SMILES) | IC50 [nM] |
| --- | --- |
| CCCC[C@H](C[C@H](Cc1ccc(-n2cccn2)cc1)C(=O)NCC(=O)O)C(=O)O | 366 |
| O=C(O)CC[C@@H](Cc1ccc(-c2ccccc2)cc1)C(=O)NCC(=O)O | 2.3 |
| CCC/C=C(/C[C@@H](Cc1ccc(-n2cccn2)cc1)C(=O)NCC(=O)O)C(=O)O | > 1000 |
| O=C(O)CNC(=O)[C@H](Cc1ccc(-c2ccccc2)cc1)C[C@@H](COc1ccccc1)C(=O)O | 3.2 |
| O=C(O)CNC(=O)[C@@H](C[C@H](COc1ccccc1)C(=O)O)Oc1ccc(-c2ccccc2)cc1 | > 1000 |
| O=C(O)CNC(=O)[C@H](Cc1ccc(-c2ccccc2)cc1)C[C@H](COc1ccccc1)C(=O)O | 5.9 |
| CC(CC(Cc1ncc(-c2ccccc2)cn1)C(=O)NCC(=O)O)C(=O)O (stereo not given) | > 1000 |
| CC(NC(=O)[C@H](Cc1ccc(-c2ccccc2)cc1)CC(COc1ccccc1)C(=O)O)C(=O)O (mixture of isomers) | 20 |
| CSCCC(NC(=O)[C@H](Cc1ccc(-c2ccccc2)cc1)CC(COc1ccccc1)C(=O)O)C(=O)O (mixture of isomers) | 101 |
| O=C(O)CNC(=O)[C@H](Cc1ccc(-c2ccccc2)cc1)CC(COc1ccccc1)C(=O)O (single isomer, unassigned; isomer A) | 3.2 |
| COCCOCC(CC(Cc1ccccc1)C(=O)NCC(=O)O)C(=O)O (single isomer, unassigned; isomer A) | > 1000 |
| O=C(O)CNC(=O)C(Cc1ccccc1)CC(COc1ccccc1)C(=O)O (single isomer, unassigned; isomer A) | > 1000 |
| COCCOCC(CC(Cc1ccccc1)C(=O)NCC(=O)O)C(=O)O (single isomer, unassigned; isomer B) | 945 |
| O=C(O)CNC(=O)C(Cc1ccccc1)CC(COc1ccccc1)C(=O)O (single isomer, unassigned; isomer B) | 407 |
| O=C(O)C(COc1ccccc1)C[C@@H](Cc1ccc(-c2ccccc2)cc1)C(=O)N1CCCC1C(=O)O (single isomer, unassigned; isomer B) | > 1000 |
| CC(NC(=O)[C@H](Cc1ccc(-c2ccccc2)cc1)CC(COc1ccccc1)C(=O)O)C(=O)O (stereo in doubt) | 2.8 |
| O=C(O)C(COc1ccccc1)C[C@@H](Cc1ccc(-c2ccccc2)cc1)C(=O)N1CCCC1C(=O)O (stereo in doubt) | > 1000 |
| C[C@@H](NC(=O)[C@H](Cc1ccc(-c2ccccc2)cc1)CC(COc1ccccc1)C(=O)O)C(=O)O (stereo in doubt; form 1) | 13 |
| C[C@@H](NC(=O)[C@H](Cc1ccc(-c2ccccc2)cc1)CC(COc1ccccc1)C(=O)O)C(=O)O (stereo in doubt; form 2) | 8.7 |

target: T1, Neprilysin; assay: In vitro inhibitory activity against neutral endopeptidase (NEP) from rat kidney

| Structure (SMILES) | IC50 [nM] |
| --- | --- |
| O=C(O)CNC(=O)[C@H](Cc1ccc(-c2ccccc2)cc1)CC(COc1ccccc1)C(=O)O (stereo not given in full) | 5.9 |
